System: S. pyogenes A561
Experiment: Method of dilutions in liquid medium (minimum inhibiting concentration)
Type: cell-based
Conditions: liquid nutritive medium, incubation twenty-four hours at 37° C, growth inhibition read by transillumination; for MIC: Streptococcus pyogenes, 24 h, read-out: minimum inhibiting concentrations (M.I.C.)
Method: Method of dilutions in liquid medium.
A series of tubes were prepared in which the same amount of sterile nutritive medium was distributed and increasing amounts of the product to be studied was distributed in each tube. Then, each tube was seeded with a bacterial strain and after incubationg for twenty-four hours in an oven at 37° C, the inhibition of growth was determined by transillumination which allowed the minimum inhibiting concentrations (M.I.C.) to be evaluated.
Products were tested on many strains inclusing : • S. aureus SG511 • S. aureus SG511 (+10 % serum) • S. aureus Exp54146 • S. pyogenes A561 • E. faecium M78L

| MIC [µg/mL] | SMILES | minimum inhibiting concentrations (M.I.C.) |
| --- | --- | --- |
| – | CC(=O)NC1C(OC2C(COC3OC(CO)C(O)C(O)C3O)OC(OC3C(OP(=O)(O)OCC(OCCNCC=C(C)CCCC(C)CCCC(C)CCCC(C)C)C(=O)O)OC(C(N)=O)C(C)(O)C3OC(N)=O)C(NC(C)=O)C2O)OC(C)C(OC2OC(C(N)=O)C(O)C(O)C2O)C1O [Example 4, 3-carbamate 1-[(2R)-2-carboxy-2-[[(3,7,11,15-tetramethyl-2-hexadecenyl)amino]ethoxy]ethyl hydrogen phosphate] 0-β-D-glucopyranosyl-(1→6)-O-[O-(β-D-galactopyranuronamidosyl)-(1→4)-2-(acetylamino)-2,6-dideoxy-β-D-glucopyranosyl-(1→4]-O-2-(acetylamino)-2-deoxy-.beat.-D-glucopyranosyl-(1→2)-4-C-methyl-α-D-Glucopyranuronamide] | ≤ 1,2 microgramme/ml |
| ≤ 1.2 | CCCCCCCCCCCCc1ccc(NCCO[C@H](COP(=O)(O)O[C@H]2O[C@H](C(N)=O)[C@@](C)(O)[C@H](OC(N)=O)[C@H]2O[C@@H]2O[C@H](CO[C@@H]3O[C@H](CO)[C@@H](O)[C@H](O)[C@H]3O)[C@@H](O[C@@H]3O[C@H](C)[C@@H](O[C@@H]4O[C@H](C(N)=O)[C@H](O)[C@H](O)[C@H]4O)[C@H](O)[C@H]3NC(C)=O)[C@H](O)[C@H]2NC(C)=O)C(=O)O)cc1 [Example 5, 3-carbamate 1-[(2R)-2-carboxy-2-[[(4-dodecylphenyl))amino]ethoxy]ethyl hydrogen phosphate] 0-β-D-glucopyranosyl-(1→6)-O-[O-(β-D-galactopyranuronamidosyi)-(1→4)-2-(acetylamino)-2,6-dideoxy-β-D-glucopyranosyl-(1→4]-O-2-(acetylamino)-2-deoxy-.beat.-D-glucopyranosyl-(1→2)-4-C-methyl-α-D-Glucopyranuronamide] | – |
| ≤ 1.2 | C=CC(CCCCCCCCC)C(O)CO[C@H](COP(=O)(O)O[C@H]1O[C@H](C(N)=O)[C@@](C)(O)[C@H](OC(N)=O)[C@H]1O[C@@H]1O[C@H](CO[C@@H]2O[C@H](CO)[C@@H](O)[C@H](O)[C@H]2O)[C@@H](O[C@@H]2O[C@H](C)[C@@H](O[C@@H]3O[C@H](C(N)=O)[C@H](O)[C@H](O)[C@H]3O)[C@H](O)[C@H]2NC(C)=O)[C@H](O)[C@H]1NC(C)=O)C(=O)O (stereo partly drawn) [Example 6] | – |

Source: patent EP1069130A1, “Moenomycin A Derivatives, their preparation, and use as antibacterial products” (HOECHST MARION ROUSSEL, priority 1999, dated 2001)
